Test results published in patent US12637467B2, “Inhibitor of BTK and mutants thereof” (Newave Pharmaceutical Inc., priority 2019, dated 2026).
Entries after “also recorded” stand apart in the source; their conditions may differ.

Target: WT BTK (Homo sapiens, UniProt Q06187)
Test: In vitro dialysis assay (irreversibility assay), WT BTK
Assay type: biochemical
Details: for Recovery after 24 h dialysis: 0.003 mM compound pre-incubated with 2 nM BTK for 2 hr, dialyzed 24 hr against buffer with 40 mM ATP, BTK activity vs non-dialyzed samples; for Conclusion (WT BTK): reversible or irreversible inhibition after 24 hr dialysis
Description: The compound-enzyme complex was dialyzed against the same buffer supplemented with 40 mM ATP for 24 hr. Cumulative dialysis factor >160,000×. After dialysis, the BTK activity was measured in the presence 40 mM ATP and 1 mM substrate peptide and compared to that in non-dialyzed samples. Assay buffer: 100 mM HEPES, pH7.5; 0.1% BSA, 0.01% Triton-X 100; 5 mM MgCl2; 1 mM DTT.

WT BTK, sequence (Q06187 whole entry): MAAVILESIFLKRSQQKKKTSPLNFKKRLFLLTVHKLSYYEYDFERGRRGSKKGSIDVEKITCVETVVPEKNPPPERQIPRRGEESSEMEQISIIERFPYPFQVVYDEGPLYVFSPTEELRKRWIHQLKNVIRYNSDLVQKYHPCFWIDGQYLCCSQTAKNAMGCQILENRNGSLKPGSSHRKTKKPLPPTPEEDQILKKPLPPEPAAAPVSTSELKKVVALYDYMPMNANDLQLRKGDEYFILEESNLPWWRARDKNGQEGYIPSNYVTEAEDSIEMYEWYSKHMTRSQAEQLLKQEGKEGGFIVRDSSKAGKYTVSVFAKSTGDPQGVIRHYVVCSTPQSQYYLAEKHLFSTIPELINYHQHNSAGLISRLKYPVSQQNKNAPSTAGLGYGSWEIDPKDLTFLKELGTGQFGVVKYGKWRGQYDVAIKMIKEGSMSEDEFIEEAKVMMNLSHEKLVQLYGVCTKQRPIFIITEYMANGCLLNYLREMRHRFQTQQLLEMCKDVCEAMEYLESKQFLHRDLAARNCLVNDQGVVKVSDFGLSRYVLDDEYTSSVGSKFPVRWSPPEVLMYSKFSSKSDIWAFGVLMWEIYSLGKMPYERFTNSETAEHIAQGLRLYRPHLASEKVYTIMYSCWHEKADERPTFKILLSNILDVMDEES

Row | Compound | Recovery after 24 h dialysis [%] | Conclusion (WT BTK)
1 | C=CC(=O)Nc1cc(Nc2nc(-c3ccnc(N4CCn5c(cc6c5CC(C)(C)C6)C4=O)c3CO)cn(C)c2=O)ccc1N1CCN(C2CCOC2)C[C@@H]1C (stereo partly drawn) [Example 39, N-(5-[[6-(2-[4,4-dimethyl-9-oxo-1,10-diazatricyclo[6.4.0.0^[2,6]]dodeca-2(6),7-dien-10-yl]-3-(hydroxymethyl)pyridin-4-yl)-4-methyl-3-oxopyrazin-2-yl]amino]-2-[(2S)-2-methyl-4-(oxolan-3-yl)piperazin-1-yl]phenyl)prop-2-enamide] | ~1 | Irreversible/covalent inhibition
2 | C=CC(=O)Nc1cc(Nc2nc(-c3ccnc(N4CCn5c(cc6c5CC(C)(C)C6)C4=O)c3C)cn(C)c2=O)ccc1N1CCC(N2CCOCC2)CC1C [Example 17, N-(5-[[6-(2-[4,4-dimethyl-9-oxo-1,10-diazatricyclo[6.4.0.0^[2,6]]dodeca-2(6),7-dien-10-yl]-3-methylpyridin-4-yl)-4-methyl-3-oxopyrazin-2-yl]amino]-2-[(2S)-2-methyl-4-(morpholin-4-yl)piperidin-1-yl]phenyl)prop-2-enamide] | – | Irreversible/covalent inhibition
3 | C=CC(=O)Nc1cc(Nc2nc(-c3ccnc(N4CCn5c(cc6c5CC(C)(C)C6)C4=O)c3C)cn(C)c2=O)cnc1N1CCN(C2COC2)C[C@@H]1C [Example 46, N-(5-[[6-(2-[4,4-dimethyl-9-oxo-1,10-diazatricyclo[6.4.0.0^[2,6]]dodeca-2(6),7-dien-10-yl]-3-methylpyridin-4-yl)-4-methyl-3-oxopyrazin-2-yl]amino]-2-[(2S)-2-methyl-4-(oxetan-3-yl)piperazin-1-yl]pyridin-3-yl)prop-2-enamide] | ~1 | Irreversible/covalent inhibition
4 | C=CC(=O)Nc1cc(Nc2nc(-c3ccnc(N4CCn5c(cc6c5CC(C)(C)C6)C4=O)c3CO)cn(C)c2=O)ccc1C1CN(C)C(=O)CN1C1COC1 (stereo not shown) [Example 43] | – | Irreversible/covalent inhibition
5 | C=CC(=O)Nc1cc(Nc2nc(-c3ccnc(N4CCn5c(cc6c5CC(C)(C)C6)C4=O)c3CO)cn(C)c2=O)ccc1N1CCN(C2COC2)C[C@@H]1C [Example 3, (S)—N-(5-((6-(2-(7,7-dimethyl-1-oxo-1,3,4,6,7,8-hexahydro-2H-cyclopenta[4,5]pyrrolo[1,2-a]pyrazin-2-yl)-3-(hydroxymethyl)pyridin-4-yl)-4-methyl-3-oxo-3,4-dihydropyrazin-2-yl)amino)-2-(2-methyl-4-(oxetan-3-yl)piperazin-1-yl)phenyl)acrylamide] | – | irreversible inhibitors; also recorded: Irreversible/covalent inhibition
6 | C=CC(=O)Nc1cc(Nc2nc(-c3ccnc(N4CCCn5c(cc6c5CC(C)(C)C6)C4=O)c3CO)cn(C)c2=O)ccc1N1CCN(C2COC2)C[C@@H]1C [Example 29, N-(5-[[6-(2-[4,4-dimethyl-9-oxo-1,10-diazatricyclo[6.5.0.0^[2,6]]trideca-2(6),7-dien-10-yl]-3-(hydroxymethyl)pyridin-4-yl)-4-methyl-3-oxopyrazin-2-yl]amino]-2-[(2S)-2-methyl-4-(oxetan-3-yl)piperazin-1-yl]phenyl)prop-2-enamide] | ~1 | Irreversible/covalent inhibition
7 | C=CC(=O)Nc1cc(Nc2nc(-c3ccnc(N4CCn5c(cc6c5CC(C)(C)C6)C4=O)c3C)cn(C)c2=O)ccc1N1CCN(C2COC2)CC1(C)C [Example 45, N-[2-[2,2-dimethyl-4-(oxetan-3-yl)piperazin-1-yl]-5-[[6-(2-[4,4-dimethyl-9-oxo-1,10-diazatricyclo[6.4.0.0^[2,6]]dodeca-2(6),7-dien-10-yl]-3-methylpyridin-4-yl)-4-methyl-3-oxopyrazin-2-yl]amino]phenyl]prop-2-enamide] | ~1 | Irreversible/covalent inhibition
8 | C=CC(=O)Nc1cc(Nc2nc(-c3ccnc(N4CCn5c(cc6c5CC(C)(C)C6)C4=O)c3C)cn(C)c2=O)ccc1N1CCN(C2COC2)C[C@@H]1C [Example 11, (S)—N-(5-((6-(2-(7,7-dimethyl-1-oxo-1,3,4,6,7,8-hexahydro-2H-cyclopenta[4,5]pyrrolo[1,2-a]pyrazin-2-yl)-3-methylpyridin-4-yl)-4-methyl-3-oxo-3,4-dihydropyrazin-2-yl)amino)-2-(2-methyl-4-(oxetan-3-yl)piperazin-1-yl)phenyl)acrylamide] | – | irreversible inhibitors; also recorded: Irreversible/covalent inhibition
9 | C=CC(=O)Nc1cc(Nc2nc(-c3ccnc(N4CCn5c(cc6c5CC(C)(C)C6)C4=O)c3C)cn(C)c2=O)ccc1N1CCC(N2CCOCC2)CC1.Cl [Example 18, N-(5-[[6-(2-[4,4-dimethyl-9-oxo-1,10-diazatricyclo[6.4.0.0^[2,6]]dodeca-2(6),7-dien-10-yl]-3-methylpyridin-4-yl)-4-methyl-3-oxopyrazin-2-yl]amino]-2-[4-(morpholin-4-yl)piperidin-1-yl]phenyl)prop-2-enamide hydrochloride] | ~1 | Irreversible/covalent inhibition
10 | C=CC(=O)Nc1cc(Nc2nc(-c3ccnc(N4CCn5c(cc6c5CC(C)(C)C6)C4=O)c3CO)cn(C)c2=O)ccc1N1CCC(N2CCOCC2)CC1C (stereo not shown) [Example 12, N-(5-((6-(2-(7,7-dimethyl-1-oxo-1,3,4,6,7,8-hexahydro-2H-cyclopenta[4,5]pyrrolo[1,2-a]pyrazin-2-yl)-3-(hydroxymethyl)pyridin-4-yl)-4-methyl-3-oxo-3,4-dihydropyrazin-2-yl)amino)-2-(2-methyl-4-morpholinopiperidin-1-yl)phenyl)acrylamide] | – | irreversible inhibitors; also recorded: Irreversible/covalent inhibition
11 | C=CC(=O)Nc1cc(Nc2nc(-c3ccnc(N4CCCn5c(cc6c5CC(C)(C)C6)C4=O)c3CO)cn(C)c2=O)ccc1N1CCN([C@H]2C[C@@H](C)O[C@@H](C)C2)C[C@@H]1C [Example 38, N-(5-[[6-(2-[4,4-dimethyl-9-oxo-1,10-diazatricyclo[6.5.0.0^[2,6]]trideca-2(6),7-dien-10-yl]-3-(hydroxymethyl)pyridin-4-yl)-4-methyl-3-oxopyrazin-2-yl]amino]-2-[(2S)-2-methyl-4-[(2R,4r,6S)-2,6-dimethyloxan-4-yl]piperazin-1-yl]phenyl)prop-2-enamide] | ~1 | Irreversible/covalent inhibition
12 | C=CC(=O)Nc1cc(Nc2nc(-c3ccnc(N4CCc5c(sc6c5CCC6(C)C)C4=O)c3CO)cn(C)c2=O)ccc1N1CCN(C2COC2)C[C@@H]1C [Example 35, N-(5-[[6-(2-[5,5-dimethyl-9-oxo-7-thia-10-azatricyclo[6.4.0.0^[2,6]]dodeca-1(8),2(6)-dien-10-yl]-3-(hydroxymethyl)pyridin-4-yl)-4-methyl-3-oxopyrazin-2-yl]amino]-2-[(2S)-2-methyl-4-(oxetan-3-yl)piperazin-1-yl]phenyl)prop-2-enamide] | ~1 | Irreversible/covalent inhibition
13 | C=CC(=O)Nc1cc(Nc2nc(-c3ccnc(N4CCn5c(cc6c5CC(C)(C)C6)C4=O)c3C)cn(C)c2=O)ccc1N1CCN(C2CCOCC2)C[C@@H]1C [Example 40, N-(5-[[6-(2-[4,4-dimethyl-9-oxo-1,10-diazatricyclo[6.4.0.0^[2,6]]dodeca-2(6),7-dien-10-yl]-3-methylpyridin-4-yl)-4-methyl-3-oxopyrazin-2-yl]amino]-2-[(2S)-2-methyl-4-(oxan-4-yl)piperazin-1-yl]phenyl)prop-2-enamide] | ~1 | Irreversible/covalent inhibition
14 | C=CC(=O)Nc1cc(Nc2nc(-c3ccnc(N4CCn5c(cc6c5CC(C)(C)C6)C4=O)c3CO)cn(C)c2=O)ccc1N1CCC(N2CCN(C)CC2)CC1 [Example 21, N-(5-[[6-(2-[4,4-dimethyl-9-oxo-1,10-diazatricyclo[6.4.0.0^[2,6]]dodeca-2(6),7-dien-10-yl]-3-(hydroxymethyl)pyridin-4-yl)-4-methyl-3-oxopyrazin-2-yl]amino]-2-[4-(4-methylpiperazin-1-yl)piperidin-1-yl]phenyl)prop-2-enamide] | ~1 | Irreversible/covalent inhibition
15 | C=CC(=O)Nc1cc(Nc2nc(-c3ccnc(N4CCc5c(sc6c5CCCC6)C4=O)c3C)cn(C)c2=O)ccc1N1CCN(C2COC2)C[C@@H]1C [Example 44, (S)—N-(2-(2-methyl-4-(oxetan-3-yl)piperazin-1-yl)-5-((4-methyl-6-(3-methyl-2-(1-oxo-3,4,5,6,7,8-hexahydrobenzo [4, 5]thieno[2,3-c]pyridin-2(1H)-yl)pyridin-4-yl)-3-oxo-3,4-dihydropyrazin-2-yl)amino)phenyl) acrylamide] | – | Irreversible/covalent inhibition
16 | C=CC(=O)Nc1cc(Nc2nc(-c3ccnc(N4CCn5c(cc6c5CC(C)(C)C6)C4=O)c3CO)cn(C)c2=O)ccc1C1C(=O)N(C)CCN1C1COC1 (stereo not shown) [Example 41] | ~1 | Irreversible/covalent inhibition
17 | C=CC(=O)Nc1cc(Nc2nc(-c3ccnc(N4CCn5c(cc6c5CC(C)(C)C6)C4=O)c3CO)cn(C)c2=O)ccc1N1CCC(N2CCC(F)(F)CC2)CC1 [Example 20, N-(2-[4,4-difluoro-[1,4′-bipiperidin]-1′-yl]-5-[[6-(2-[4,4-dimethyl-9-oxo-1,10-diazatricyclo[6.4.0.0^[2,6]]dodeca-2(6),7-dien-10-yl]-3-(hydroxymethyl)pyridin-4-yl)-4-methyl-3-oxopyrazin-2-yl]amino]phenyl)prop-2-enamide] | ~1 | Irreversible/covalent inhibition
